Here are results for three compounds from patent publication US12479847B2 (DANA-FARBER CANCER INSTITUTE, INC., priority 2019, dated 2025).

Common to all, as to assay: KINOMEscan (ScanMAX) kinase profiling
Assay type in all cases: binding

The target in assay [1] is T1, panel of 468 kinases (Homo sapiens, UniProt O14936).
T1 construct: purchased KINOMEscan (ScanMAX) service
T1 sequence (O14936 1-926): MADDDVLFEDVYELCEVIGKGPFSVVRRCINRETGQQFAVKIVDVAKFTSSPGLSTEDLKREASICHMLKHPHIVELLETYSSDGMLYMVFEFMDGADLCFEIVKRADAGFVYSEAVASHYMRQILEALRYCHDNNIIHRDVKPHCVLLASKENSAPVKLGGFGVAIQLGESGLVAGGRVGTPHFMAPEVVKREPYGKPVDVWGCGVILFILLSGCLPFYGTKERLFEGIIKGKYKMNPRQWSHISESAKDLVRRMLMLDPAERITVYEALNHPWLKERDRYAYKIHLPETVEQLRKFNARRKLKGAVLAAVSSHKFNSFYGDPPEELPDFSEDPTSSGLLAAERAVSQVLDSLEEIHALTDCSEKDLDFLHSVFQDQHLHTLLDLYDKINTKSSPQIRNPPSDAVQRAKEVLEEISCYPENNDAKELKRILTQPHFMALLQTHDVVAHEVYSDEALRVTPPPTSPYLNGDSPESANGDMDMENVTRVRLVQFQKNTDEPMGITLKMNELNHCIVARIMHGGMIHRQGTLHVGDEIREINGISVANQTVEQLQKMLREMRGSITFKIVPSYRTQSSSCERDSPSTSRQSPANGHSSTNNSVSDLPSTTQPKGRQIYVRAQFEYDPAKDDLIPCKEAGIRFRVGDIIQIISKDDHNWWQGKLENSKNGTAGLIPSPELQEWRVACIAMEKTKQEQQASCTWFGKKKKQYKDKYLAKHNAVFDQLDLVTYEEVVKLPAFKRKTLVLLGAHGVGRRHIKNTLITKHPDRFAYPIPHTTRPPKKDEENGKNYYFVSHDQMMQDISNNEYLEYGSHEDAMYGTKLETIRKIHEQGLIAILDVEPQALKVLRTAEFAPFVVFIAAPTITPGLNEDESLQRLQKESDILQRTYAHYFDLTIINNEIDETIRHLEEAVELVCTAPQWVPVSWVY
The conditions noted are these: CASK; 1 μM; read-out: % control.

For assay [2], the target named is T2, panel of 468 kinases (Homo sapiens, UniProt O43293).
T2 construct: purchased KINOMEscan (ScanMAX) service
The conditions noted are these: DAPK3; 1 μM; read-out: % control.

The target in assay [3] is T3, panel of 468 kinases (Homo sapiens, UniProt P08631).
T3 construct: purchased KINOMEscan (ScanMAX) service
The conditions noted are these: HCK; 1 μM; read-out: % control.

Assay [4] has as its target T4, panel of 468 kinases (Homo sapiens, UniProt P42336, C420R).
T4 construct: purchased KINOMEscan (ScanMAX) service
The conditions noted are these: PIK3CA(C420R); 1 μM; read-out: % control.

For assay [5], the target named is T5, panel of 468 kinases (Homo sapiens, UniProt Q6ZWH5).
T5 construct: purchased KINOMEscan (ScanMAX) service
T5 sequence (Q6ZWH5 1-1172): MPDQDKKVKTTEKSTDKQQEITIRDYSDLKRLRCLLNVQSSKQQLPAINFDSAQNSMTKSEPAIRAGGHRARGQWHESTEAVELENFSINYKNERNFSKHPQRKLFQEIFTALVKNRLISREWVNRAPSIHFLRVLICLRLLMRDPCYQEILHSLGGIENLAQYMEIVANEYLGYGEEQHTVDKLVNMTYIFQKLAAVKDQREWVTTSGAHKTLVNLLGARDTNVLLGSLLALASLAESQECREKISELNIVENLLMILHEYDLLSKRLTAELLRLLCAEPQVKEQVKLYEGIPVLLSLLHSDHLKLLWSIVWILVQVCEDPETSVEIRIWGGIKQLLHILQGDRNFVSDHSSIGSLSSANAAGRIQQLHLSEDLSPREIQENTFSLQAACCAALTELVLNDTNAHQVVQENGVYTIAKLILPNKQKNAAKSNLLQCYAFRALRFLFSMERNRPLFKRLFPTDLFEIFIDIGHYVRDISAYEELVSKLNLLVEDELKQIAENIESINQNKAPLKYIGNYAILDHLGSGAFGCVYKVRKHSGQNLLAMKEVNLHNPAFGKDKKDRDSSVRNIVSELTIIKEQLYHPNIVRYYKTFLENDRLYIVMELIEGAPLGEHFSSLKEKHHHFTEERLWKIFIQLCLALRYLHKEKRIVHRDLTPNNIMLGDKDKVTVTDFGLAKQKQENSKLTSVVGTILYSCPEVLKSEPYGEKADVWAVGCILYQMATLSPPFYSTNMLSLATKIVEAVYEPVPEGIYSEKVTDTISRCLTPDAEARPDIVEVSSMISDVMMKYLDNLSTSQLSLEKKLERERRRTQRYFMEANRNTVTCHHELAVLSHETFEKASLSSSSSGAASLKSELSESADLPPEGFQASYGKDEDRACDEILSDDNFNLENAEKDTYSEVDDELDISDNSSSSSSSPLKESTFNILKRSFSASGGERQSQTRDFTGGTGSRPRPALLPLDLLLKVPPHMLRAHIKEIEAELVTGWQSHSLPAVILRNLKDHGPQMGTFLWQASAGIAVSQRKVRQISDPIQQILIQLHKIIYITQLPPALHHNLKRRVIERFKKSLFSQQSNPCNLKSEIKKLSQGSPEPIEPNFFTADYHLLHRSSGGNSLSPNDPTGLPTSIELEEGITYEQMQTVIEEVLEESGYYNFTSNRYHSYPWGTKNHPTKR
The conditions noted are these: NEK10; 1 μM; read-out: % control.

T4 sequence (P42336 whole entry C420R): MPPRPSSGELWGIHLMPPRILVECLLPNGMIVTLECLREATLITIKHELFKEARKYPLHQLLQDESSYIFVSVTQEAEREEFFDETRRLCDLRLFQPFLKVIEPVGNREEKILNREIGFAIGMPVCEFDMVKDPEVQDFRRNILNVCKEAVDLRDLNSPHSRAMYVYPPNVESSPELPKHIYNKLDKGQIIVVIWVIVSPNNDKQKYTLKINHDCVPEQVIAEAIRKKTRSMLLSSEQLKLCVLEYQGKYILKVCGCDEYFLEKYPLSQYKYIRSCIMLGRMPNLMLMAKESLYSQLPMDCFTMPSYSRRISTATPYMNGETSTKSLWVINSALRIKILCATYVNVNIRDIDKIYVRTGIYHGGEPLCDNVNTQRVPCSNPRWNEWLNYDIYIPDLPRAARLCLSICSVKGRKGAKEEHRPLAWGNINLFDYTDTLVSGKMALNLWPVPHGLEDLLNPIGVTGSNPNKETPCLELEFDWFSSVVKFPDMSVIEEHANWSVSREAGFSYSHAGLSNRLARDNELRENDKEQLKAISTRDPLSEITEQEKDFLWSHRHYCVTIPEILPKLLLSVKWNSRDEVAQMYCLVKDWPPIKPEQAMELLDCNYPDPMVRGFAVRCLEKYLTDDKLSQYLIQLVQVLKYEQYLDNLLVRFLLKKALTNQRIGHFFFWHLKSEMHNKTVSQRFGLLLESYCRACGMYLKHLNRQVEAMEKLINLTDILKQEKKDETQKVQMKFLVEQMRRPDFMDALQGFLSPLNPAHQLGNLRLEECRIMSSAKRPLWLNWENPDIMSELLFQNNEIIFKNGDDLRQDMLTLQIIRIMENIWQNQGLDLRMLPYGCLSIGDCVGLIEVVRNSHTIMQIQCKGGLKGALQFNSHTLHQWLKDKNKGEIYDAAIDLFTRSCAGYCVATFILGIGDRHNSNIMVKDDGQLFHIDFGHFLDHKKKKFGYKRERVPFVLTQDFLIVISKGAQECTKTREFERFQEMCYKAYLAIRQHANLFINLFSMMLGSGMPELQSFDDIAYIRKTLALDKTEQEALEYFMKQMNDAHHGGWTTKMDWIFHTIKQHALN
T2 sequence (O43293 whole entry): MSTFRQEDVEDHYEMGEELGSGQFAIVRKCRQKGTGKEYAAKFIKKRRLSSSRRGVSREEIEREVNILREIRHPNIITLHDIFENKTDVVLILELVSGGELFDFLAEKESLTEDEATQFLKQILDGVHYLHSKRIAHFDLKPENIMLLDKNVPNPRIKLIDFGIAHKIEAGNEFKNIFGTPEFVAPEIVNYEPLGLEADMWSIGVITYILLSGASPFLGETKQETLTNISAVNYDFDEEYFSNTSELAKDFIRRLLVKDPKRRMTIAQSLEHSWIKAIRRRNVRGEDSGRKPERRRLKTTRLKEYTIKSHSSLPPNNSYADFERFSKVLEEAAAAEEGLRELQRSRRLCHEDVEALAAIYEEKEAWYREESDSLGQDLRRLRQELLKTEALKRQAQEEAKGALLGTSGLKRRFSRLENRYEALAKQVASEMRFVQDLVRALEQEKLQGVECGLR
T3 sequence (P08631 whole entry): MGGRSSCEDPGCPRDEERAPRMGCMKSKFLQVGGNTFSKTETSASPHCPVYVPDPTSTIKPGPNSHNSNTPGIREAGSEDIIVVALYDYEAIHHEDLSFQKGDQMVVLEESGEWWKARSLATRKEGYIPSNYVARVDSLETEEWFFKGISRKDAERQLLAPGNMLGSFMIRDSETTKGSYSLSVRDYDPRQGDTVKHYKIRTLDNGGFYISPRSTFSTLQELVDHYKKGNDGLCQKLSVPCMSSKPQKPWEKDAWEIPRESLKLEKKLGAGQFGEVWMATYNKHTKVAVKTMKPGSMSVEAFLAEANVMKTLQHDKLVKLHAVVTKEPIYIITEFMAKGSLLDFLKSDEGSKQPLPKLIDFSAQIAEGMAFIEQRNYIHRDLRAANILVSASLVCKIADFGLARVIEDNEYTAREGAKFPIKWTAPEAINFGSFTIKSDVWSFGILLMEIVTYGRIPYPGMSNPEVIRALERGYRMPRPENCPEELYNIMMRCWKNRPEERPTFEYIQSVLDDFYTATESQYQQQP

In the case of `CNc1nc(Nc2ccc(C(=O)N3CCC(N4CCOCC4)CC3)c3c2OCO3)nc2[nH]cc(Cl)c12` [Compound 75, (7-((5-chloro-4-(methylamino)-7H-pyrrolo[2,3-d]pyrimidin-2-yl)amino)benzo[d][1,3]dioxol-4-yl)(4-morpholinopiperidin-1-yl)methanone], the remaining binding at 1 µM amounted to 99% at panel of 468 kinases [1]; 16% on panel of 468 kinases [2]; 100% on panel of 468 kinases [3]; 100% on panel of 468 kinases [4]; 66% on panel of 468 kinases [5].

As to `CNc1nc(Nc2ccc(P3(=O)CCN(C4CCOCC4)CC3)cc2OC)nc2[nH]cc(Cl)c12` [Compound 77, 4-(4-((5-chloro-4-(methylamino)-7H-pyrrolo[2,3-d]pyrimidin-2-yl)amino)-3-methoxyphenyl)-1-(tetrahydro-2H-pyran-4-yl)-1,4-azaphosphinane 4-oxide], the remaining binding at 1 µM on panel of 468 kinases [1] came out at 95%; at panel of 468 kinases [2], 9.9%; at panel of 468 kinases [3] it was 100%; at panel of 468 kinases [4], 100%; at panel of 468 kinases [5], 39%.

Regarding `CNc1nc(Nc2ccc(S(=O)(=O)N3CCC(N4CCOCC4)CC3)cc2OC)nc2[nH]cc(Cl)c12` [Compound 12, 5-chloro-N2-(2-methoxy-4-((4-morpholinopiperidin-1-yl)sulfonyl)phenyl)-N4-methyl-7H-pyrrolo[2,3-d]pyrimidine-2,4-diamine], the remaining binding at 1 µM worked out at 90% on panel of 468 kinases [1]; 35% at panel of 468 kinases [2]; 98% at panel of 468 kinases [3]; 100% on panel of 468 kinases [4]; 63% on panel of 468 kinases [5].
